In paper PMC8140528 (Chemistry & biodiversity, 2021):
Where two headings read alike, the source gives them in different places.

How the values were obtained:
[1] = tested on: murine leukemia cells (L1210); assay: Antiproliferative effect on L1210 cells; type: cell-based
[2] = tested on: human T-lymphocyte cells (CEM); assay: Antiproliferative effect on CEM cells; type: cell-based; settings: read-out: IC50 CEM
[3] = tested on: L1210, CEM and HeLa cells; assay: Cytotoxicity screening over L1210, CEM and HeLa; type: cell-based; settings: read-out: IC50 (range over the cell lines tested), L1210, CEM and HeLa together
[4] = Differential nuclear staining; type: cell-based; settings: human
[5] = tested on: CCRF-CEM (Acute Lymphoblastic leukemia); assay: Differential nuclear staining; type: cell-based; settings: Homo sapiens, CCRF-CEM, read-out: CC50 (death of 50% of the cells)
[6] = tested on: human cervix carcinoma cells (HeLa); assay: Antiproliferative effect on HeLa cells; type: cell-based; settings: read-out: IC50 HeLa
[7] = Differential nuclear staining; type: cell-based; settings: human, Hs27 non-cancerous fibroblast cells
[8] = Differential nuclear staining; type: cell-based; settings: human; remark: listed apart in the source
[9] = tested on: Jurkat (Acute T Cell Leukemia); assay: Differential nuclear staining; type: cell-based; settings: Homo sapiens, Jurkat
Jurkat cells [10] = assay: Annexin V-FITC/PI assay; type: cell-based, human; settings: 7g at CC50 (2.36 μM) and CC100 (4.72 μM), vs vehicle control
Jurkat cells [11] = assay: Mitochondrial depolarization assay; type: cell-based, human; settings: JC-1, flow cytometry, 5 h
Jurkat cells [12] = assay: Cell cycle analysis; type: cell-based, human
[13] = tested on: caspase-3 in Jurkat cells; assay: Caspase-3 activation assay; type: cell-based, human; settings: CC50 (2.36 μM) and CC100 (4.72 μM), 7 h, vs controls
[14] = read-out: IC50 L1210, L1210 cells, mean ± SEM (n=3)
[15] = Mus musculus, L1210, read-out: IC50 L1210
[16] = read-out: CC50 (death of 50% of the cells)
[17] = read-out: CC50 (range for compounds 7g and 8b)
[18] = cells treated with the CC50, 48 h

Row | Structure (SMILES) | IC50 [1, 14] [nM] | IC50 ([2]; Homo sapiens, CCRF-CEM) [nM] | IC50 [3] [nM] | selectivity ratio [4] | CC50 [5] [nM] | IC50 ([6]; Homo sapiens, HeLa) [nM] | CC50 at 72 h [7] [nM] | IC50 [1, 15] [nM] | selectivity ratio [8] | CC50 [9, 16] [nM] | CC50 [9, 17] [nM] | also measured
1 | N[C@@H](Cc1ccc(N(CCCl)CCCl)cc1)C(=O)O [Melphalan, reference compound] | 2130 ± 20 | 1400 ± 400 |  |  |  |  |  |  |  |  |  | 
2 | COc1ccc(Cc2nn3c(C=O)c(-c4ccc(Cl)cc4)nc3s2)cc1 [Compound 8b, 6-(4-chlorophenyl)-2-(4-methoxybenzyl)imidazo[2,1-b][1,3,4]thiadiazole-5-carbaldehyde] |  | 940 ± 120 | 940 to 1300 | 0.65 | 3620 ± 260 | 1300 ± 200 | 2360 ± 30 | 1100 ± 200 | 1.43 | 1650 ± 190 | 1650 to 4730 | 
3 | c1ccc([C@H]2CN3CCSC3=N2)cc1 [Levamisole, reference compound] |  | > 250000 |  |  |  | > 250000 |  |  |  |  |  | 
4 | COc1ccc(Cc2nn3c(SC#N)c(-c4cc5ccccc5oc4=O)nc3s2)cc1 [Compound 7g, 2-(4-methoxybenzyl)-6-(2-oxo-2H-chromen-3-yl)imidazo[2,1-b][1,3,4]thiadiazol-5-yl thiocyanate] |  | 790 ± 350 | 780 to 1600 | 6.65 | 4730 ± 220 | 780 ± 130 | 31400 ± 740 | 1600 ± 200 | 13.3 | 2360 ± 100 | 1650 to 4730 | phosphatidylserine externalization (Jurkat cells [10]): inducing phosphatidylserine externalization in a dose-response manner; mitochondrial membrane depolarization (Jurkat cells [11]): not causing mitochondrial membrane depolarization; sub-G0/G1 subpopulation (DNA fragmentation) (Jurkat cells [12]; 7g at CC50 (2.36 μM) and CC100 (4.72 μM), 48 h): increase in sub-G0/G1 subpopulation; cell population in G2-M phase (Jurkat cells [12]; 48 h): increase of the cell population in the G2-M phase; cell population in S phase (Jurkat cells [12]; [18]): increase of cell population in the S phase; cell subpopulation in G0-G1 phase (Jurkat cells [12]; [18]): decrease of cell subpopulation in the G0-G1 phase; caspase-3 activation [13]: induced statistically significant activation of caspase-3
5 | COc1ccc(Cc2nn3cc(-c4cc5ccccc5oc4=O)nc3s2)cc1 [Compound 5h] | 90000 ± 24000 |  |  |  |  |  |  |  |  |  |  | IC50 ([6]; HeLa cells, mean ± SEM (n=3)): 70000 ± 4000 nM; IC50 ([2]; CEM cells, mean ± SEM (n=3)): 5000 ± 3300 nM
